From patent US20260250318A1, “COMPOSITIONS AND METHODS FOR CROSSING THE BLOOD BRAIN BARRIER” (VOYAGER THERAPEUTICS, INC., priority 2022, published 2026)

Key:
[1] = system: brains, heart, liver, muscle, and DRG of the NHPs; test: Maturation of TTM-001 and TTM-002 capsids, NGS enrichment in NHP tissues; assay type: in vivo; details: relative to AAV9 control
How it was run: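 Variants carry mutations within and flanking the loop IV peptide insert: positions 450–466 were triplet-randomized, while positions 449–466 received low-frequency point mutations. The combined pool went into two NHPs, and each peptide was scored by NGS enrichment ratio against AAV9.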

brain = test: Matured TTM-001 and TTM-002 variants, NGS enrichment in mouse brain; assay type: in vivo, mice; details: relative to AAV9 control
[2] = NGS fold-enrichment of RNA, NHP brain
[3] = NGS fold-enrichment, DRG of NHPs
[4] = NGS fold-enrichment, NHP liver DNA
[5] = NGS fold-enrichment, NHP liver RNA
[6] = NGS fold-enrichment, NHP muscle
[7] = NGS fold-enrichment, RNA, brain of NHPs
[8] = NGS fold-enrichment, heart of NHPs
[9] = NGS fold-enrichment, liver DNA of NHPs
[10] = NGS fold-enrichment, liver RNA of NHPs
[11] = NGS fold-enrichment, muscle of NHPs
[12] = NGS fold-enrichment, brain of mice
[13] = NGS fold-enrichment, mouse brain
[14] = NGS fold-enrichment of matured AAV capsid variants, NHP brain, RNA

Sequence	Fold Enrichment relative to AAV9, Brain (NHP) [1, 2] [fold]	Fold Enrichment relative to AAV9, DRG (NHP) [1, 3] [fold]	Fold Enrichment relative to AAV9, DRG (NHP) ([1]; NGS fold-enrichment, NHP DRG) [fold]	Fold Enrichment relative to AAV9, Heart (NHP) ([1]; NGS fold-enrichment, NHP heart) [fold]	Fold Enrichment relative to AAV9, Liver DNA (NHP) [1, 4] [fold]	Fold Enrichment relative to AAV9, Liver RNA (NHP) [1, 5] [fold]	Fold Enrichment relative to AAV9, Muscle (NHP) [1, 6] [fold]	Fold Enrichment relative to AAV9, Brain (NHP) [1, 7] [fold]	Fold Enrichment relative to AAV9, Heart (NHP) [1, 8] [fold]	Fold Enrichment relative to AAV9, Liver DNA (NHP) [1, 9] [fold]	Fold Enrichment relative to AAV9, Liver RNA (NHP) [1, 10] [fold]	Fold Enrichment relative to AAV9, Muscle (NHP) [1, 11] [fold]	Fold Enrichment relative to AAV9, Brain (Mouse) (brain; [12]) [fold]	Fold Enrichment relative to AAV9, Brain (Mouse) (brain; [13]) [fold]	Fold Enrichment relative to AAV9, Brain (NHP) [1, 14] [fold]	Fold Enrichment relative to AAV9, DRG (NHP) ([1]; NHP DRG) [fold]	Fold Enrichment relative to AAV9, Heart (NHP) ([1]; NHP heart) [fold]	Fold Enrichment relative to AAV9, Liver DNA (NHP) ([1]; NHP liver, DNA) [fold]	Fold Enrichment relative to AAV9, Liver RNA (NHP) ([1]; NHP liver, RNA) [fold]	Fold Enrichment relative to AAV9, Muscle (NHP) ([1]; NHP muscle) [fold]	further results
KTERTSGSPHSKAQNQQT	112.957	0.000	0.000	0.009	0.207	1.128	0.000	112.957	0.009	0.207	1.128	0.000	117.374	117.374	–	–	–	–	–	–	–
KTINGSGSPHSKAQTPPT	–	0.010	–	–	–	–	–	64.657	0.015	0.207	0.200	0.014	54.179	–	–	–	–	–	–	–	–
KAEHGSGSPHSKAQNQQT	–	0.000	–	–	–	–	–	61.830	0.000	0.184	0.772	0.000	116.201	–	–	–	–	–	–	–	–
KNSIGSGSPHSKAQNQQT	–	–	–	–	–	–	–	–	–	–	–	–	–	–	57.101	0.000	0.052	0.074	0.083	0.000	Fold Enrichment relative to AAV9, Brain (Mouse) (brain; mouse brain): 97.381 fold
KTINGSGSPHSKAQRDQT	–	–	–	–	–	–	–	–	–	–	–	–	–	–	51.897	0.069	0.014	0.554	0.867	0.040	Fold Enrichment relative to AAV9, Brain (Mouse) (brain; mouse brain): 102.317 fold
KTINGSGSPHSKAQSVHT	–	–	–	–	–	–	–	–	–	–	–	–	–	–	53.226	0.000	0.004	0.217	0.446	0.000	Fold Enrichment relative to AAV9, Brain (Mouse) (brain; mouse brain): 76.110 fold
KTINGSGSPHSKRPEQQT	80.418	0.000	0.000	0.013	0.361	0.149	0.000	80.418	0.013	0.361	0.149	0.000	50.319	50.319	–	–	–	–	–	–	–
KTINGSASPHSKAHSQQT	–	–	–	–	–	–	–	–	–	–	–	–	–	–	55.293	0.000	0.000	0.166	0.000	0.000	Fold Enrichment relative to AAV9, Brain (Mouse) (brain; mouse brain): 66.252 fold
KTFHGSGSPHSKTQNQQT	94.714	0.000	0.000	0.210	0.000	0.000	0.120	94.714	0.210	0.000	0.000	0.120	51.119	51.119	–	–	–	–	–	–	–
KTVNGHDSPHKSGQNHLT	81.516	–	0.000	0.100	0.028	0.000	0.017	–	–	–	–	–	–	16.096	–	–	–	–	–	–	–
KNALGSGSPHSKAQNQQT	–	0.000	–	–	–	–	–	60.014	0.003	0.213	0.682	0.000	137.222	–	–	–	–	–	–	–	–
KTIDGGGSPHSKAQNKQT	85.019	0.000	0.000	0.000	0.477	0.000	0.000	85.019	0.000	0.477	0.000	0.000	55.517	55.517	–	–	–	–	–	–	–
KTVNGSGSPHSKAQNLQA	–	0.000	–	–	–	–	–	66.379	0.000	0.132	0.000	0.000	50.934	–	–	–	–	–	–	–	–
KTINGSGSPHSKAQLHHT	–	–	–	–	–	–	–	–	–	–	–	–	–	–	56.815	0.025	0.000	0.368	0.712	0.010	Fold Enrichment relative to AAV9, Brain (Mouse) (brain; mouse brain): 58.418 fold
KTIYGHDSPHKSVQNQLT	92.381	–	0.000	0.043	0.016	0.103	0.000	–	–	–	–	–	–	12.323	–	–	–	–	–	–	–
